From ChEMBL document CHEMBL1201862, “PubChem BioAssay data set” (2004)
Active and inactive are the calls of the source.

Columns and labels:
[1] = NIH-3T3 fibroblast cytotoxicity, dose response, cytotoxicity control, cell-based, fluorescence, Alamar Blue, secondary assay (AID 2327); type: functional;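 also: NIH-3T3 mouse fibroblasts cultured with fluconazole at 8 µg/mL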
[2] = C. albicans growth with fluconazole, confirmation, fluorescence, retest (AID 2467); type: functional, cell-based
[3] = target: T1, Calpain-2 catalytic subunit (Sus scrofa, UniProt P43367); assay: pig calpain II inhibitor potency, dose response, biochemical, fluorogenic peptide substrate (AID 1420); type: functional
T1 sequence (P43367 whole entry): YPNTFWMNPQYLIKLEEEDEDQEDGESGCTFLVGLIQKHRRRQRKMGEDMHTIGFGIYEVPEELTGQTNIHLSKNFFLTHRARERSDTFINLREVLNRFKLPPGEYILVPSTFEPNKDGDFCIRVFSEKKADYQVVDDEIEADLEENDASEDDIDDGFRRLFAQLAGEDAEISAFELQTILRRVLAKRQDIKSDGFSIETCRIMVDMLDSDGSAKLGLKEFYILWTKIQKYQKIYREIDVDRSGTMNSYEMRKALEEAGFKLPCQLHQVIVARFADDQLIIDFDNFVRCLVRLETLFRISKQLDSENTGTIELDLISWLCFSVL

[4] = target: FAD-linked sulfhydryl oxidase ALR (Homo sapiens, UniProt P55789); assay: inhibitors of human ALR sulfhydryl oxidase, dose response, biochemical, H2O2 detection, luminescence, cherry-pick (AID 493248)
FAD-linked sulfhydryl oxidase ALR, sequence (P55789 whole entry): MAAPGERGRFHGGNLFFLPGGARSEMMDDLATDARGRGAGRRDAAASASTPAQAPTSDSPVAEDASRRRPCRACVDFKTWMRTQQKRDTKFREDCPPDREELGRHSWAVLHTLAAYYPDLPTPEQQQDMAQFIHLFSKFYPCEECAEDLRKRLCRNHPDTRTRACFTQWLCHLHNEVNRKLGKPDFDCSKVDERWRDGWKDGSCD

[5] = target: T2, Heat shock factor protein 1 (Mus musculus, UniProt P38532); assay: HSF1 potentiators in luciferase reporter cells, confirmation, cell-based, NIH3T3, luminescence, dose retest (AID 435004); type: functional;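 also: stress induced by proteasome inhibitor MG132 added 30 min after compound; luciferase reporter driven by HSF1 response element in NIH3T3 cells; actives raise luminescence as potentiators of the MG132 stress response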
T2 sequence (P38532 whole entry): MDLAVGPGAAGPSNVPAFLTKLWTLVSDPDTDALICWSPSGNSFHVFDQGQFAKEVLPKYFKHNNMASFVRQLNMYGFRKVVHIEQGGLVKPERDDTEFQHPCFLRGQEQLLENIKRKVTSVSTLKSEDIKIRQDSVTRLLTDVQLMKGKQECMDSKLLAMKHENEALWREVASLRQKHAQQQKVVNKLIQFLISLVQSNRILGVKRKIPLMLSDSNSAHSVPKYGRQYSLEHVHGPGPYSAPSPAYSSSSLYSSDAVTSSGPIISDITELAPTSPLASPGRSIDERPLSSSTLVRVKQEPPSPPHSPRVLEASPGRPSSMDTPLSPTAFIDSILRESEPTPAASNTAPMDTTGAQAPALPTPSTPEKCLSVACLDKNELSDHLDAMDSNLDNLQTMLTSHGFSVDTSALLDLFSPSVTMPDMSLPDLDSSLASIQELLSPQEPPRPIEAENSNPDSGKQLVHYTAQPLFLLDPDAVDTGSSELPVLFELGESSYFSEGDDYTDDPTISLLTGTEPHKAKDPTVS

[6] = target: T3, RNA-binding protein pos-1 (Caenorhabditis elegans, UniProt G5EF15); assay: inhibitors of POS-1/mex-3 RNA binding, dose response, biochemical, fluorescence polarization (AID 1964);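 also: purified POS-1 fused to maltose binding protein made in E. coli; potency of compounds blocking POS-1 binding to fluorescent RNA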
T3 sequence (G5EF15 whole entry): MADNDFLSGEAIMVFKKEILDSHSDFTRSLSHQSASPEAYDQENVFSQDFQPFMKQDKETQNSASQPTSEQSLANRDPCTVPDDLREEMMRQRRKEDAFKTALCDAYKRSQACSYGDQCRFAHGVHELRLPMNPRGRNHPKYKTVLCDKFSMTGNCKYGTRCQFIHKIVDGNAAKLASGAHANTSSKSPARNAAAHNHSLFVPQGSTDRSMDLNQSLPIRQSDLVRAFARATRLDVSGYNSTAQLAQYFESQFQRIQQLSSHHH

[7] = target: T4, Zinc finger protein mex-5 (Caenorhabditis elegans, UniProt Q9XUB2); assay: MEX-5/TCR-2 RNA interaction inhibitors, dose response, biochemical, C. elegans, fluorescence polarization (AID 1960)
T4 sequence (Q9XUB2 whole entry): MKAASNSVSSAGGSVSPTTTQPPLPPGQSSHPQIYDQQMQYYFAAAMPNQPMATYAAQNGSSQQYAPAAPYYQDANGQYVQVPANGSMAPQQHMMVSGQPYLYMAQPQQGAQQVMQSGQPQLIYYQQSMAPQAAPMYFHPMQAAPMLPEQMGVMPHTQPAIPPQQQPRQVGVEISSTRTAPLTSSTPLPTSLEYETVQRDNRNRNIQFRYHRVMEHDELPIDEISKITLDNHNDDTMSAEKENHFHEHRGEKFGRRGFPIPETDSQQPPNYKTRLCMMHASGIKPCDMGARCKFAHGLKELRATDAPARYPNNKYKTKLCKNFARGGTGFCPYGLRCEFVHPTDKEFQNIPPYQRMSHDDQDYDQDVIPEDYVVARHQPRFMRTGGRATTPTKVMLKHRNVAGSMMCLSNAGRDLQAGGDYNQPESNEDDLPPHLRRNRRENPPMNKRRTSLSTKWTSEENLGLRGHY

[8] = Luminescence Cell-Based Dose Retest to Confirm Inhibitors of Cancer Stem Cells. [Related pubchem assays (depositor defined):AID2717, AID2721]; type: functional; details: Homo sapiens
[9] = target: T5, Polyadenylate-binding protein 1 (Homo sapiens, UniProt P11940); assay: PABP1 MLLE–PAM2 interaction inhibitors, dose response, miRNA deadenylation inhibitor project, biochemical, fluorescence polarization, Cy5-PAM2 peptide, secondary (AID 602260); type: functional; details: read-out: IC50_Mean
T5 sequence (P11940 whole entry): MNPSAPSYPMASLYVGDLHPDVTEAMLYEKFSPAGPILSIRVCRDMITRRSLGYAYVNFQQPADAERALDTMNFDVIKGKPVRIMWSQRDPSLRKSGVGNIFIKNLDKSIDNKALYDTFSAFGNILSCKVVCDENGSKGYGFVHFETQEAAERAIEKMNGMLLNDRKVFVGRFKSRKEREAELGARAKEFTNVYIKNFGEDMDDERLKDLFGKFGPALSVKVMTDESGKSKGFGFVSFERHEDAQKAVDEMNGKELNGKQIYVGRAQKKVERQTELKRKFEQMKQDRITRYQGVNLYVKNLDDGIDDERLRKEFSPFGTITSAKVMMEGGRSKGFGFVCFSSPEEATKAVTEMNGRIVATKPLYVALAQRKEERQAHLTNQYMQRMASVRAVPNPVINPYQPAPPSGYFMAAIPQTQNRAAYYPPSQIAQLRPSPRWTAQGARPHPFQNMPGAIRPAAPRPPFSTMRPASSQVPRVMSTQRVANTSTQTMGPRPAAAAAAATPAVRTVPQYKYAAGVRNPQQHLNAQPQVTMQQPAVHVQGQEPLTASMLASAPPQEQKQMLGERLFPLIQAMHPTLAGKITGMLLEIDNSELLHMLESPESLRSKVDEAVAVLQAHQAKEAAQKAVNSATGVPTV

[10] = target: T5, Polyadenylate-binding protein 1; assay: PABP1 MLLE–PAM2 binding inhibitor potency, dose response, biochemical, fluorescence polarization, FITC-PAM2 peptide (AID 602259); type: functional; details: read-out: IC50_Mean
cells [11] = type: functional, cell-based
cells [12] = type: functional, cell-based; remark: listed apart in the source
[13] = target: T6, Microphthalmia-associated transcription factor (Homo sapiens, UniProt O75030); assay: TRPM1 promoter luciferase signal decrease, dose response, MITF inhibitor project, cell-based, SK-MEL-5, cherry-picked, set 3 (AID 493073); type: functional
T6 sequence (O75030 whole entry): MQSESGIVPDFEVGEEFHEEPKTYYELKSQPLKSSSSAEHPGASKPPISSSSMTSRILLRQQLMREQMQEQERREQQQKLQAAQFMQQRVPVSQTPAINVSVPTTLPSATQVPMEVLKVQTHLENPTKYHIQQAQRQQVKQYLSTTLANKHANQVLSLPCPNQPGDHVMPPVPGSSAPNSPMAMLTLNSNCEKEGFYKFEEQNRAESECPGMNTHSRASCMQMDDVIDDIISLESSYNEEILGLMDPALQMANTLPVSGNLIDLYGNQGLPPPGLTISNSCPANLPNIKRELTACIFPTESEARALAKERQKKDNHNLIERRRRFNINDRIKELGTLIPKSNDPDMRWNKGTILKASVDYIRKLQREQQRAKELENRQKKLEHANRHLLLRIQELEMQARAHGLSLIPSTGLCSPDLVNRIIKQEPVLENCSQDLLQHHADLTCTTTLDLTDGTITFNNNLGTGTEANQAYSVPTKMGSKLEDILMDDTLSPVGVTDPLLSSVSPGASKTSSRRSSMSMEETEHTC

Cytochrome P450 2D6 = Cytochrome P450 2D6 (Homo sapiens, UniProt P10635);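 also: CYP2D6 member of a cytochrome P450 panel assay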
Cytochrome P450 2D6, sequence (P10635 whole entry): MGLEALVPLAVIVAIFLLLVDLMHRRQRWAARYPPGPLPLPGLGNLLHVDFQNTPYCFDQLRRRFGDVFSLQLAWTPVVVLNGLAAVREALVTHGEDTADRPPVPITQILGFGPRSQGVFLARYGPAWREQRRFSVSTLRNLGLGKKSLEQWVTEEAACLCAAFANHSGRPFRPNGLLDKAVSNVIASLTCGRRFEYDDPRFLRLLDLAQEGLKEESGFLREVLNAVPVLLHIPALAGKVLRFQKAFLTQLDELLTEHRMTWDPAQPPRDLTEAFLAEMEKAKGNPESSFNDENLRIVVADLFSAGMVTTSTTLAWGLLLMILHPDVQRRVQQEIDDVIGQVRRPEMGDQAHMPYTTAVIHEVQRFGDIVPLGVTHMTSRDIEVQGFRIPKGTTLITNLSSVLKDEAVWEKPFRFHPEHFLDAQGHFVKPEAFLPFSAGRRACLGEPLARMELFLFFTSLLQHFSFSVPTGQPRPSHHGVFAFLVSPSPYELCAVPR

Structure (SMILES): CC(C)CCOC(=O)C1C(c2ccccc2)C(C(=O)O)C1c1ccccc1 (stereo not drawn)
- EC50 [1]: > 160 µM (inconclusive)
- EC50 [2]: 4.96 µM (active)

Structure (SMILES): COc1ccc(N2CCN(C(c3cccs3)C(C)NS(C)(=O)=O)CC2)cc1 (stereo not drawn)
- IC50 [3]: 5.8 µM (not active)
- AC50 [4]: 1.67 µM (active)

Structure (SMILES): COc1ccc(N(C(=O)Cn2nnc3ccccc32)C(C(=O)NC(C)(C)C)c2ccc(OC)c(O)c2)cc1 (stereo not drawn)
- EC50 [1]: > 150 µM (inactive)
- EC50 [2]: 1.62 µM (active)

Structure (SMILES): CS(=O)(=O)c1ccc(Cl)c(C(=O)NCC2CCCCC2)c1
- EC50 [5]: > 260 µM (inactive)

Structure (SMILES): O=C(CCS(=O)(=O)Cc1ccccc1)Nc1nnc(C(F)(F)F)s1
- EC50 [1]: > 160 µM (inactive)
- EC50 [2]: 0.741 µM (active)

Structure (SMILES): N=C(N)NS(=O)(=O)c1ccc(NC(=S)NC(=O)/C=C/c2cccs2)cc1
- EC50 [6]: > 300 µM (not active)
- EC50 [7]: > 300 µM (not active)

Structure (SMILES): NC(=O)C1(N2CCCCC2)CCN(Cc2nc(-c3cccs3)no2)CC1
- EC50 [6]: > 300 µM (not active)
- EC50 [7]: > 300 µM (not active)

Structure (SMILES): CC(Oc1cc2oc(=O)c3c(c2cc1Cl)CCCC3)C(=O)NCc1ccncc1 (stereo not drawn)
- EC50 [1]: > 150 µM (inactive)
- EC50 [2]: > 38 µM (not active)

Structure (SMILES): CCCCCNC(=O)C1CCC(Cn2c(=S)[nH]c3ccccc3c2=O)CC1 (stereo not drawn)
- EC50 [5]: > 260 µM (inactive)

Structure (SMILES): CC(=O)Nc1ccc(SC[C@H](C)CN2CC[C@H](C(C)(C)C)CCC2=O)cc1
- AC50 [8]: 1.47 µM (active)
- AC50 [4]: 0.687 µM (active)
- IC50 [9]: > 66 µM (inactive)
- IC50 [10]: > 66 µM (inactive)

Structure (SMILES): O=C(O)CCC(=O)N1N=C(c2cccs2)CC1c1cn(-c2ccccc2)nc1-c1ccccc1 (stereo not drawn)
- EC50 [6]: 46.5 µM (active)
- EC50 [7]: > 300 µM (not active)

Structure (SMILES): COc1ccc(S(=O)(=O)Nc2cc3c4c(oc3c3ccccc23)CCCC4=O)cc1
- EC50 [5]: > 260 µM (inactive)

Structure (SMILES): COc1ccc(OC)c(NC(=O)CNC(c2ccccc2)c2ccccc2)c1
- EC50 [5]: > 260 µM (inactive)

Structure (SMILES): COc1ccccc1N1CCN(C(=O)C(CC(C)C)NC(=O)C2CCCCC2)CC1 (stereo not drawn)
- EC50 [5]: > 260 µM (inactive)

Structure (SMILES): O=S(=O)(c1ccc(Oc2ccccc2)cc1)N1CCOCC1
- EC50 [5]: > 260 µM (inactive)

Structure (SMILES): Cc1ccc(CNC(=O)Cn2ccc3ccccc3c2=O)o1
- EC50 [5]: > 260 µM (inactive)

Structure (SMILES): CC1=C(C(=O)OCc2ccccc2)C(c2ccccc2[N+](=O)[O-])NC(=O)N1C (stereo not drawn)
- EC50 [6]: > 300 µM (not active)
- EC50 [7]: 10.9 µM (active)

Structure (SMILES): CN1C(=O)c2ccccc2NC(=O)[C@]12O[C@@H]2c1cccc(O)c1
- EC50 [6]: 4.13 µM (active)
- EC50 [7]: 35.1 µM (active)

Structure (SMILES): CCN(CC)S(=O)(=O)c1cccc(C(=O)N/N=C(\C)c2ccc(O)cc2O)c1
- EC50 (cells [11]): 11.7 µM (active)
- EC50 (cells [12]): > 350 µM (not active)
- AC50 [13]: 3.74 µM (active)

Structure (SMILES): Cc1ccc(NCC(=O)N/N=C\c2ccc([N+](=O)[O-])o2)cc1
- AC50 [13]: 19.1 µM (active)
- AC50 (Cytochrome P450 2D6): 15.8 µM (inconclusive)

Structure (SMILES): CC1(C)Cc2ccccc2C(N/N=C/c2ccc([N+](=O)[O-])cc2)=N1
- EC50 [1]: > 150 µM (inactive)
- EC50 [2]: > 38 µM (not active)
